Measurements as given in patent US8574563B2 (Bristol-Myers Squibb Company, priority 2006, dated 2013).

Test system: HCV 1b-377-neo replicon cells
Assay: HCV replicon assay, HCV 1b-377-neo replicon cells (1b FRET)
Assay type: cell-based, Hepatitis C virus genotype 1b
Conditions: HCV 1b-377-neo replicon cells; HCV 1b genotype; read-out: EC50 range against HCV 1b (Table 2, Range)
Procedure, shortened: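 Compounds tested in HCV genotype 1b-377-neo replicon cells with a FRET read-out. Cells resistant to a reference NS5A inhibitor through a Y2065H NS5A mutation were run alongside wild-type cells.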

Q: For `COC(=O)N[C@@H](C(=O)N1CCC[C@H]1c1ncc(-c2ccc(-c3ccc(-c4cnc([C@@H]5CCCN5C(=O)Cc5ccccn5)[nH]4)cc3)cc2)[nH]1)c1ccccc1` [Example 46, methyl ((1R)-2-oxo-1-phenyl-2-((2S)-2-(5-(4′-(2-((2S)-1-(2-pyridinylacetyl)-2-pyrrolidinyl)-1H-imidazol-5-yl)-4-biphenylyl)-1H-imidazol-2-yl)-1-pyrrolidinyl)ethyl)carbamate], which EC50 is on record?
A: 0.001 to 0.999 nM

Same assay, conditions: Hepatitis C virus, HCV 1b-377-neo replicon cells; HCV 1b genotype; read-out: EC50 range against HCV 1b (Table 2, Range)

Q: Which EC50 does the source give for `COC(=O)N[C@@H](C(=O)N1CCC[C@H]1c1ncc(-c2ccc(-c3ccc(-c4cnc([C@@H]5CCCN5C(=O)c5ccccc5F)[nH]4)cc3)cc2)[nH]1)c1ccccc1` [Example 84-40, methyl ((1R)-2-((2S)-2-(5-(4′-(2-((2S)-1-(2-fluorobenzoyl)-2-pyrrolidinyl)-1H-imidazol-5-yl)-4-biphenylyl)-1H-imidazol-2-yl)-1-pyrrolidinyl)-2-oxo-1-phenylethyl)carbamate] here?
A: 0.001 to 0.999 nM

Q: `CC(=O)CCC(=O)N1CCC[C@H]1c1ncc(-c2ccc(-c3ccc(-c4cnc([C@@H]5CCCN5C(=O)[C@@H](c5ccccc5)N5CCCCC5)[nH]4)cc3)cc2)[nH]1` [Example 107-5, 5-oxo-5-((2S)-2-(5-(4′-(2-((2S)-1-((2R)-2-phenyl-2-(1-piperidinyl)acetyl)-2-pyrrolidinyl)-1H-imidazol-5-yl)-4-biphenylyl)-1H-imidazol-2-yl)-1-pyrrolidinyl)-2-pentanone] was tested. Which EC50 did it give?
A: 0.001 to 0.999 nM

Q: Which EC50 does the source give for `COC(=O)N[C@H](C(=O)N1CCC[C@H]1c1ncc(-c2ccc(-c3ccc(-c4nc([C@@H]5CCCN5C(=O)[C@@H](NC(=O)OC)C(C)C)[nH]c4CC(OC)OC)cc3)cc2)[nH]1)C(C)C` [Example J14a.1, methyl ((1S)-1-(((2S)-2-(4-(2,2-dimethoxyethyl)-5-(4′-(2-((2S)-1-((2S)-2-((methoxycarbonyl)amino)-3-methylbutanoyl)-2-pyrrolidinyl)-1H-imidazol-4-yl)-4-biphenylyl)-1H-imidazol-2-yl)-1-pyrrolidinyl)carbonyl)-2-methylpropyl)carbamate] here?
A: 0.001 to 0.999 nM

Q: `C[C@H](NC(=O)N(C)C)C(=O)N1CCC[C@H]1c1ncc(-c2ccc(-c3ccc(-c4cnc([C@@H]5CCCN5C(=O)[C@H](C)NC(=O)N(C)C)[nH]4)cc3)cc2)[nH]1` [OL-2, 3-((1S)-2-((2S)-2-(4-(4′-(2-((2S)-1-(N-(dimethylcarbamoyl)-L-alanyl)-2-pyrrolidinyl)-1H-imidazol-4-yl)-4-biphenylyl)-1H-imidazol-2-yl)-1-pyrrolidinyl)-1-methyl-2-oxoethyl)-1,1-dimethylurea] was tested. Which EC50 did it give?
A: 0.001 to 0.999 nM

Q: For `C[C@H](NC(=O)[C@@H](c1ccccc1)N(C)C)c1ncc(-c2cnc(-c3ccc(-c4cnc([C@@H]5CCCN5C(=O)[C@@H](c5ccccc5)N(C)C)[nH]4)cc3)cn2)[nH]1` [Example 152j-18, (2R)-2-(dimethylamino)-N-((1S)-1-(5-(5-(4-(2-((2S)-1-((2R)-2-(dimethylamino)-2-phenylacetyl)-2-pyrrolidinyl)-1H-imidazol-5-yl)phenyl)-2-pyrazinyl)-1H-imidazol-2-yl)ethyl)-2-phenylacetamide], which EC50 is on record?
A: 0.001 to 0.999 nM

Q: With `CN(C)[C@@H](C(=O)N1C[C@@H](O)C[C@H]1c1ncc(-c2ccc(-c3ccc(-c4cnc([C@@H]5C[C@H](O)CN5C(=O)[C@@H](c5ccccc5)N(C)C)[nH]4)cc3)cc2)[nH]1)c1ccccc1` [Example 24-16, (3S,5S,3′S,5′S)-5,5′-(4,4′-biphenyldiylbis(1H-imidazole-5,2-diyl))bis(1-((2R)-2-(dimethylamino)-2-phenylacetyl)-3-pyrrolidinol)] as the compound, how does the EC50 read?
A: 0.001 to 0.999 nM

Q: Which EC50 does the source give for `O=C(Cc1ccccc1CN1CCOCC1)N1CCC[C@H]1c1ncc(-c2ccc(-c3ccc(-c4cnc([C@@H]5CCCN5C(=O)[C@@H](c5ccccc5)N5CCCCC5)[nH]4)cc3)cc2)[nH]1` [Example 107-26, 4-(2-(2-oxo-2-((2S)-2-(5-(4′-(2-((2S)-1-((2R)-2-phenyl-2-(1-piperidinyl)acetyl)-2-pyrrolidinyl)-1H-imidazol-5-yl)-4-biphenylyl)-1H-imidazol-2-yl)-1-pyrrolidinyl)ethyl)benzyl) morpholine] here?
A: 0.001 to 0.999 nM

Q: How did the EC50 turn out when `C[C@@H](c1ncc(-c2ccc(-c3ccc(-c4cnc([C@@H]5CCCN5C(=O)[C@@H](c5ccccc5)N5CCCCC5)[nH]4)cc3)cc2)[nH]1)N(C)C(=O)[C@@H](c1ccccc1)N1CCCCC1` [Example 24-18-6, (2R)-N-methyl-2-phenyl-N-((1S)-1-(5-(4′-(2-((2S)-1-((2R)-2-phenyl-2-(1-piperidinyl)acetyl)-2-pyrrolidinyl)-1H-imidazol-5-yl)-4-biphenylyl)-1H-imidazol-2-yl)ethyl)-2-(1-piperidinyl)acetamide] was run?
A: 0.001 to 0.999 nM

Q: Which EC50 does the source give for `CC(=O)N[C@@H](C(=O)N1CCC[C@H]1c1ncc(-c2ccc(-c3ccc(-c4cnc([C@@H]5CCCN5C(=O)[C@H]5CCCO5)[nH]4)cc3)cc2)[nH]1)c1ccccc1` [Example 118, N-((1R)-2-oxo-1-phenyl-2-((2S)-2-(5-(4′-(2-((2S)-1-((2R)-tetrahydro-2-furanylcarbonyl)-2-pyrrolidinyl)-1H-imidazol-5-yl)-4-biphenylyl)-1H-imidazol-2-yl)-1-pyrrolidinyl)ethyl) acetamide] here?
A: 0.001 to 0.999 nM

Q: Which EC50 does the source give for `COC(=O)N[C@@H](Cc1ccncc1)C(=O)N1CCC[C@H]1c1ncc(-c2ccc(-c3ccc(-c4cnc([C@@H]5CCCN5C(=O)[C@@H](NC(=O)OC)[C@@H](C)OC)[nH]4)cc3)cc2)[nH]1` [cj-87, methyl ((1S)-2-((2S)-2-(5-(4′-(2-((2S)-1-((2S,3R)-3-methoxy-2-((methoxycarbonyl)amino)butanoyl)-2-pyrrolidinyl)-1H-imidazol-5-yl)-4-biphenylyl)-1H-imidazol-2-yl)-1-pyrrolidinyl)-2-oxo-1-(4-pyridinylmethyl)ethyl)carbamate] here?
A: 0.001 to 0.999 nM

Q: Which EC50 does the source give for `COC(=O)N[C@@H](C)C(=O)N1CCC[C@H]1c1ncc(-c2ccc(-c3ccc(-c4cnc([C@@H]5CCCN5C(=O)[C@H](C)NC(=O)OC)[nH]4)c(F)c3)cc2)[nH]1` [Example D45, methyl ((1S)-2-((2S)-2-(5-(3′-fluoro-4′-(2-((2S)-1-(N-(methoxycarbonyl)-L-alanyl)-2-pyrrolidinyl)-1H-imidazol-5-yl)-4-biphenylyl)-1H-imidazol-2-yl)-1-pyrrolidinyl)-1-methyl-2-oxoethyl)carbamate] here?
A: 0.001 to 0.999 nM

Q: Which EC50 does the source give for `Cn1cncc1C(=O)N[C@@H](C(=O)N1CCC[C@H]1c1ncc(-c2ccc(-c3ccc(-c4cnc([C@@H]5CCCN5C(=O)[C@H](NC(=O)c5cncn5C)c5ccccc5)[nH]4)cc3)cc2)[nH]1)c1ccccc1` [Example 25-2, N,N′-(4,4′-biphenyldiylbis(1H-imidazole-5,2-diyl(2S)-2,1-pyrrolidinediyl((1R)-2-oxo-1-phenyl-2,1-ethanediyl)))bis(1-methyl-1H-imidazole-5-carboxamide)] here?
A: 0.001 to 0.999 nM

Q: For `COC(=O)NC1(C(=O)N2CCC[C@H]2c2ncc(-c3ccc(-c4ccc(-c5cnc([C@@H]6CCCN6C(=O)C6(NC(=O)OC)CC6)[nH]5)cc4)cc3)[nH]2)CC1` [Example M6, dimethyl (4,4′-biphenyldiylbis(1H-imidazole-5,2-diyl(2S)-2,1-pyrrolidinediylcarbonyl-1,1-cyclopropanediyl))bis-carbamate], which EC50 is on record?
A: 1000 to 10000 nM

Q: With `COC(=O)N[C@H](C(=O)N1CCC[C@H]1c1ncc(-c2ccc(-c3ccc(-c4cnc([C@@H]5CCCN5C(=O)[C@@H](NC(=O)OC)C(C)C)[nH]4)cc3CO)cc2)[nH]1)C(C)C` [Example M119, methyl ((1S)-1-(((2S)-2-(5-(2-(hydroxymethyl)-4′-(2-((2S)-1-((2S)-2-((methoxycarbonyl)amino)-3-methylbutanoyl)-2-pyrrolidinyl)-1H-imidazol-5-yl)-4-biphenylyl)-1H-imidazol-2-yl)-1-pyrrolidinyl)carbonyl)-2-methylpropyl)carbamate] as the compound, how does the EC50 read?
A: 100 to 999 nM

Q: Which EC50 does the source give for `COC(=O)N[C@H](C(=O)N1CCC[C@H]1c1ncc(-c2ccc(-c3ccc(-c4cnc([C@@H]5CCCN5C(=O)[C@@H](NC(=O)OC)C5CC5)[nH]4)cc3)cc2)[nH]1)C1CC1` [Example M23, dimethyl (4,4′-biphenyldiylbis(1H-imidazole-5,2-diyl(2S)-2,1-pyrrolidinediyl((1S)-1-cyclopropyl-2-oxo-2,1-ethanediyl)))biscarbamate] here?
A: 1 to 99 nM

Q: How did the EC50 turn out when `COC(=O)N[C@H](C(=O)N1CCC[C@H]1c1ncc(-c2ccc(-c3ccc(-c4cnc([C@@H]5CCCN5C(=O)[C@H]5CC[C@H](NC(=O)OC)CC5)[nH]4)cc3)cc2)[nH]1)C(C)C` [cj-70, methyl ((1S)-1-(((2S)-2-(5-(4′-(2-((2S)-1-((trans-4-((methoxycarbonyl)amino)cyclohexyl)carbonyl)-2-pyrrolidinyl)-1H-imidazol-5-yl)-4-biphenylyl)-1H-imidazol-2-yl)-1-pyrrolidinyl)carbonyl)-2-methylpropyl)carbamate] was run?
A: 0.001 to 0.999 nM

Q: Which EC50 does the source give for `CN(C)[C@@H](C(=O)N1CCC[C@H]1c1ncc(-c2ccc(-c3ccc(-c4cnc([C@@H]5CCCN5C(=O)[C@@H](c5ccccc5)N5CCC(C)(O)CC5)[nH]4)cc3)cc2)[nH]1)c1ccccc1` [Example 94-3, 1-((1R)-2-((2S)-2-(5-(4′-(2-((2S)-1-((2R)-2-(dimethylamino)-2-phenylacetyl)-2-pyrrolidinyl)-1H-imidazol-5-yl)-4-biphenylyl)-1H-imidazol-2-yl)-1-pyrrolidinyl)-2-oxo-1-phenylethyl)-4-methyl-4-piperidinol] here?
A: 0.001 to 0.999 nM

Q: With `COC(=O)N[C@@H](C(=O)N1CCC[C@H]1c1ncc(-c2ccc(-c3ccc(-c4cnc([C@@H]5CCCN5C(=O)[C@H](NC(=O)OC)c5ccccc5)[nH]4)cc3)cc2)[nH]1)c1ccccc1` [Example 4, dimethyl (4,4′-biphenyldiylbis(1H-imidazole-5,2-diyl(2S)-2,1-pyrrolidinediyl((1R)-2-oxo-1-phenyl-2,1-ethanediyl)))biscarbamate] as the compound, how does the EC50 read?
A: 0.001 to 0.999 nM

Q: With `CN(C)[C@H](Cc1ccccc1)C(=O)N1CCC[C@H]1c1ncc(-c2ccc(-c3ccc(-c4cnc([C@@H]5CCCN5C(=O)[C@@H](Cc5ccccc5)N(C)C)[nH]4)cc3)cc2)[nH]1` [cj-147, (2R,2′R)-1,1′-(4,4′-biphenyldiylbis(1H-imidazole-5,2-diyl(2S)-2,1-pyrrolidinediyl))bis(N,N-dimethyl-1-oxo-3-phenyl-2-propanamine)] as the compound, how does the EC50 read?
A: 1 to 99 nM
